In patent US8852554B2, “Radiolabelled PDE10 ligands” (Janssen Pharmaceutica NV, priority 2009, dated 2014):
“And” between values parts separate entries of the source, which are not always exact repeats. Equal entries are not always repeated.

Assay: Biodistribution studies of the 18F tracers in rats
Type: in vivo, male Wistar rats
Conditions: rat, i.v.
Protocol: Biodistribution studies were carried out in healthy male Wister rats (body weight 200-500 g) at 2 min, 30 min and 60 min post injection (p.i.) (n=3/time point). For |^18F|B-4 only the 2 min and 30 min time points were studied. […] Blood and major organs were collected in tared tubes and weighed. The radioactivity in blood, organs and other body parts was measured using an automated gamma counter. The distribution of radioactivity in different parts of the body at different time points p.i. of the tracer was calculated and expressed as percentage of injected dose (% ID), and as percentage of injected dose per gram tissue (% ID/g) for the selected organs. % ID is calculated as cpm in organ/total cpm recovered. For calculation of total radioactivity in blood, blood mass was assumed to be 7% of the body mass.

In the case of `Cc1cccc(COc2ccc(-c3nn(CC[18F])cc3-c3ccncc3)cc2)n1` [[^18F]B-1], the “% ID/g normalized for body weight, Cerebellum” value (30 min p.i.) is reported as 0.041 ± 0.01 % ID/g × body wt. in kg, the “% ID/g normalized for body weight, Cerebrum + Cerebellum” value (30 min p.i.) is reported as 0.04 ± 0.01 % ID/g × body wt. in kg and the “% ID/g normalized for body weight, Cerebrum total” value (30 min p.i.) is reported as 0.042 ± 0.01 % ID/g × body wt. in kg. For the same compound, the “% ID/g normalized for body weight, Cortex” value (30 min p.i.) was 0.057 ± 0.01 % ID/g × body wt. in kg, the “% ID/g normalized for body weight, Heart” value (30 min p.i.) was 0.07 ± 0.01 % ID/g × body wt. in kg and the “% ID/g normalized for body weight, Hippocampus” value (30 min p.i.) was 0.027 ± 0.01 % ID/g × body wt. in kg. The “% ID/g normalized for body weight, Kidneys” value (30 min p.i.) was 0.17 ± 0.01 % ID/g × body wt. in kg, the “% ID/g normalized for body weight, Liver” value (30 min p.i.) was 1.02 ± 0.13 % ID/g × body wt. in kg and the “% ID/g normalized for body weight, Lungs” value (30 min p.i.) was 0.08 ± 0.02 % ID/g × body wt. in kg. The “% ID/g normalized for body weight, Rest of cerebrum” value (30 min p.i.) was 0.039 ± 0.01 % ID/g × body wt. in kg, the “% ID/g normalized for body weight, Spleen + Pancreas” value (30 min p.i.) was 0.11 ± 0.02 % ID/g × body wt. in kg and the “% ID/g normalized for body weight, Striatum” value (30 min p.i.) was 0.070 ± 0.01 % ID/g × body wt. in kg. For the same compound, the “% ID/g, Blood” value (30 min p.i.) was 0.12 ± 0.01 % ID/g, the “% ID/g, Cerebellum” value (30 min p.i.) was 0.145 ± 0.020 % ID/g and the “% ID/g, Cerebrum + Cerebellum” value (30 min p.i.) was 0.15 ± 0.02 % ID/g. The “% ID/g, Cerebrum total” value (30 min p.i.) was 0.148 ± 0.014 % ID/g, the “% ID/g, Cortex” value (30 min p.i.) was 0.204 ± 0.016 % ID/g and the “% ID/g, Heart” value (30 min p.i.) was 0.24 ± 0.03 % ID/g. The “% ID/g, Hippocampus” value (30 min p.i.) was 0.096 ± 0.012 % ID/g, the “% ID/g, Kidneys” value (30 min p.i.) was 0.61 ± 0.11 % ID/g and the “% ID/g, Liver” value (30 min p.i.) was 3.72 ± 0.87 % ID/g. For the same compound, the “% ID/g, Lungs” value (30 min p.i.) was 0.27 ± 0.04 % ID/g, the “% ID/g, Rest of cerebrum” value (30 min p.i.) was 0.138 ± 0.013 % ID/g and the “% ID/g, Spleen + Pancreas” value (30 min p.i.) was 0.39 ± 0.04 % ID/g. The “% ID/g, Striatum” value (30 min p.i.) was 0.250 ± 0.029 % ID/g, the “radioactivity concentration, all studied brain regions” value (30 min p.i.) was ≤ 0.07 % ID/g corrected for body weight and the “striatum/blood ratio (from % ID/g normalized for body weight)” value (30 min p.i.) was 2.05. The “striatum/cerebellum ratio (from % ID/g normalized for body weight)” value (30 min p.i.) was 1.72, the “striatum/hippocampus ratio (from % ID/g normalized for body weight)” value (30 min p.i.) was 2.59 and the “% ID in liver and intestines” value (60 min p.i.) was 54 % ID. For the same compound, the “% ID in the urinary system” value (60 min p.i.) was about 2.6 % ID, the “% ID, Blood” value (60 min p.i.) was 2.2 % ID and 2.16 ± 0.4 % ID and the “% ID, Carcass” value (60 min p.i.) was 23.68 ± 3.9 % ID. For the same compound, the “% ID, Cerebellum” value (60 min p.i.) was 0.023 ± 0.005 % ID, the “% ID, Cerebrum total” value (60 min p.i.) was 0.145 ± 0.032 % ID and the “% ID, Cortex” value (60 min p.i.) was 0.018 ± 0.004 % ID. The “% ID, Heart” value (60 min p.i.) was 0.16 ± 0.0 % ID, the “% ID, Hippocampus” value (60 min p.i.) was 0.005 ± 0.001 % ID and the “% ID, Intestines” value (60 min p.i.) was 19.61 ± 1.5 % ID. For the same compound, the “% ID, Kidneys” value (60 min p.i.) was 1.38 ± 0.1 % ID, the “% ID, Liver” value (60 min p.i.) was 34.49 ± 8.0 % ID and the “% ID, Lungs” value (60 min p.i.) was 0.26 ± 0.1 % ID. The “% ID, Rest of cerebrum” value (60 min p.i.) was 0.116 ± 0.027 % ID, the “% ID, Spleen + Pancreas” value (60 min p.i.) was 0.43 ± 0.1 % ID and the “% ID, Stomach” value (60 min p.i.) was 17 % ID and 16.74 ± 4.6 % ID. The “% ID, Striatum” value (60 min p.i.) was 0.006 ± 0.002 % ID, the “% ID, Urine” value (60 min p.i.) was 1.22 ± 0.2 % ID and the “% ID/g normalized for body weight, Blood” value (60 min p.i.) was 0.03 ± 0.01 % ID/g × body wt. in kg. For the same compound, the “% ID/g normalized for body weight, Cerebellum” value (60 min p.i.) was 0.025 ± 0.01 % ID/g × body wt. in kg, the “% ID/g normalized for body weight, Cerebrum + Cerebellum” value (60 min p.i.) was 0.03 ± 0.01 % ID/g × body wt. in kg and the “% ID/g normalized for body weight, Cerebrum total” value (60 min p.i.) was 0.033 ± 0.01 % ID/g × body wt. in kg. The “% ID/g normalized for body weight, Cortex” value (60 min p.i.) was 0.036 ± 0.01 % ID/g × body wt. in kg, the “% ID/g normalized for body weight, Heart” value (60 min p.i.) was 0.05 ± 0.01 % ID/g × body wt. in kg and the “% ID/g normalized for body weight, Hippocampus” value (60 min p.i.) was 0.023 ± 0.02 % ID/g × body wt. in kg. For the same compound, the “% ID/g normalized for body weight, Kidneys” value (60 min p.i.) was 0.15 ± 0.01 % ID/g × body wt. in kg, the “% ID/g normalized for body weight, Liver” value (60 min p.i.) was 0.81 ± 0.13 % ID/g × body wt. in kg and the “% ID/g normalized for body weight, Lungs” value (60 min p.i.) was 0.05 ± 0.02 % ID/g × body wt. in kg. For the same compound, the “% ID/g normalized for body weight, Rest of cerebrum” value (60 min p.i.) was 0.034 ± 0.01 % ID/g × body wt. in kg, the “% ID/g normalized for body weight, Spleen + Pancreas” value (60 min p.i.) was 0.08 ± 0.02 % ID/g × body wt. in kg and the “% ID/g normalized for body weight, Striatum” value (60 min p.i.) was 0.051 ± 0.01 % ID/g × body wt. in kg. The “% ID/g, Blood” value (60 min p.i.) was 0.10 ± 0.02 % ID/g, the “% ID/g, Cerebellum” value (60 min p.i.) was 0.079 ± 0.021 % ID/g and the “% ID/g, Cerebrum + Cerebellum” value (60 min p.i.) was 0.10 ± 0.03 % ID/g. The “% ID/g, Cerebrum total” value (60 min p.i.) was 0.105 ± 0.035 % ID/g, the “% ID/g, Cortex” value (60 min p.i.) was 0.113 ± 0.031 % ID/g and the “% ID/g, Heart” value (60 min p.i.) was 0.15 ± 0.04 % ID/g. The “% ID/g, Hippocampus” value (60 min p.i.) was 0.074 ± 0.050 % ID/g, the “% ID/g, Kidneys” value (60 min p.i.) was 0.46 ± 0.02 % ID/g and the “% ID/g, Liver” value (60 min p.i.) was 2.53 ± 0.23 % ID/g. The “% ID/g, Lungs” value (60 min p.i.) was 0.16 ± 0.05 % ID/g, the “% ID/g, Rest of cerebrum” value (60 min p.i.) was 0.107 ± 0.030 % ID/g and the “% ID/g, Spleen + Pancreas” value (60 min p.i.) was 0.26 ± 0.07 % ID/g. For the same compound, the “% ID/g, Striatum” value (60 min p.i.) was 0.162 ± 0.042 % ID/g, the “striatum/blood ratio (from % ID/g normalized for body weight)” value (60 min p.i.) was 1.66 and the “striatum/cerebellum ratio (from % ID/g normalized for body weight)” value (60 min p.i.) was 2.06. The “striatum/hippocampus ratio (from % ID/g normalized for body weight)” value (60 min p.i.) was 2.24, the “% ID in the carcass” value (at all time points examined) was about 28 % ID and the maximum striatum-to-cerebellum ratio (biodistribution 2-60 min p.i.) was “about 2”.
